Source: patent US4022791A (priority 1975, dated 1977)

Columns and labels:
mice [1] = experiment: animal or person; assay type: in vivo, mouse; settings: mouse, in vivo, ip
mice [2] = settings: mouse, in vivo; for Hot Plate 2 hr (percentage of mice showing analgesia) / Hot Plate .5 hr (percentage of mice showing analgesia): ip
Rats = test system: Rats; parameters: Rat Jump .5 hr (current at which the animal first jumps) / Rat Jump .5 hr, second value printed in parentheses / Rat Jump 2 hr (current at which the animal first jumps): unit not given here; settings: in vivo; for Rat Jump 2 hr (current at which the animal first jumps) / Rat Jump .5 hr (current at which the animal first jumps): ip
mice [3] = settings: mouse, in vivo; for Tail Flick 2 hr (percentage of analgesia response) / Tail Flick .5 hr (percentage of analgesia response): ip
Throughout, for Hot Plate .5 hr (percentage of mice showing analgesia): test concentration or dose not given here.
Throughout, for Hot Plate 2 hr (percentage of mice showing analgesia): test concentration or dose not given here.
Throughout, for Tail Flick .5 hr (percentage of analgesia response): test concentration or dose not given here.
Throughout, for Tail Flick 2 hr (percentage of analgesia response): test concentration or dose not given here.
Throughout, for Tail Pinch .5 hr (percentage of mice showing analgesia): test concentration or dose not given here.
Throughout, for Tail Pinch 2 hr (percentage of mice showing analgesia): test concentration or dose not given here.

Structure (SMILES) | Tail Pinch 2 hr (percentage of mice showing analgesia) (mice [1]) | Tail Pinch .5 hr (percentage of mice showing analgesia) (mice [1]) | Hot Plate 2 hr (percentage of mice showing analgesia) (mice [2]) | Hot Plate .5 hr (percentage of mice showing analgesia) (mice [2]) | Rat Jump 2 hr (current at which the animal first jumps) (Rats) | Rat Jump .5 hr (current at which the animal first jumps) (Rats) | Tail Flick 2 hr (percentage of analgesia response) (mice [3]) | Tail Flick .5 hr (percentage of analgesia response) (mice [3]) | activity in the Hot Plate test (mice [2]) | activity in the Rat Jump Test (Rats) | activity in the Tail Flick test (mice [3])
CCC(=O)OC1CCN(CC2=Cc3c(Cl)ccc(OC)c3CC2)CC1 | 0 | 0 | 0 | 0 | 1.2 | 1.2 | 0 | 20 | – | – | –
COc1ccc(Cl)c2c1CCC(CN1CCC(O)CC1)=C2 | 0 | 0 | 0 | 0 | 1.2 | 1.2 | 0 | 0 | – | – | –
COc1ccc(Cl)c2c1CCC(CN1CCC(C(N)=O)CC1)=C2 | 0 | 0 | 70 | 90 | 0.6 | 0.6 | 0 | 70 | – | – | –
COc1ccc(Cl)c2c1CCC(CN1CCC(C(N)=O)(N3CCCCC3)CC1)=C2 | – | – | – | – | 1.6 | 1.2 | – | – | – | – | –
COc1ccc(Cl)c2c1CCC(CN1CCC(C)CC1)=C2 | 0 | 0 | 0 | 10 | 1.2 | 1.2 | 0 | 0 | – | – | –
COc1ccc(Cl)c2c1CCC(CN1CCN(CCO)CC1)=C2 | 0 | 40 | 20 | 50 | 1.2 | 1.2 | 0 | 10 | – | – | –
COc1ccc(Cl)c2c1CCC(CN1CCC(O)(c3ccccc3)CC1)=C2 | 0 | 0 | 0 | 50 | 1.2 | 1.2 | 0 | 30 | – | – | –
COc1ccc(N2CCN(CC3=Cc4c(Cl)ccc(OC)c4CC3)CC2)cc1 | 0 | 0 | 0 | 0 | 1.2 | 1.2 | 0 | 0 | – | – | –
CCOC(=O)N1CCN(CC2=Cc3c(Cl)ccc(OC)c3CC2)CC1 | 0 | 0 | 40 | 70 | 1.2 | 1.2 | 0 | 40 | – | – | –
CNC(=O)C1CCN(CC2=Cc3c(Cl)ccc(OC)c3CC2)CC1 | 0 | 0 | 0 | 60 | 1.2 | 1.2 | 0 | 40 | – | – | –
COc1ccc(Cl)c2c1CCC(CN1CCCC(C(N)=O)C1)=C2 (stereo not shown) | 0 | 0 | 0 | 0 | 2.2 | 1.6 | 0 | 0 | – | – | –
COc1ccc(Cl)c2c1CCC(CN1CCC(O)(c3ccc(Cl)cc3)CC1)=C2 | 0 | 0 | 0 | 20 | 1.6 | 1.2 | 0 | 0 | – | – | –
COc1ccc(Cl)c2c1CCC(CN1CCN(C)CC1)=C2 | 0 | 80 | 0 | 60 | 1.2 | 1.2 | 0 | 30 | – | – | –
COc1ccc(Cl)c2c1CCC(CN1CCN(c3ccc(Cl)cc3)CC1)=C2 | 0 | 0 | 0 | 10 | 1.2 | 1.2 | 0 | 0 | – | – | –
CCOC1(c2ccccc2)CCN(CC2=Cc3c(Cl)ccc(OC)c3CC2)CC1 | 20 | 0 | 0 | 50 | 1.2 | 1.2 | 0 | 10 | – | – | –
COc1ccc(Cl)c2c1CCC(CN1CCC(c3ccccc3)CC1)=C2 | 0 | 0 | 0 | 30 | 1.2 | 1.2 | 0 | 0 | – | – | –
COc1ccc(Cl)c2c1CCC(CN1CCN(c3cccc(C(F)(F)F)c3)CC1)=C2 | 0 | 0 | 0 | 10 | 1.2 | 1.2 | 0 | 0 | – | – | –
COc1ccc(Cl)c2c1CCC(CN(C)CCN1CCCC1)=C2 | 0 | 0 | 0 | 0 | 1.2 | 1.2 | 0 | 0 | – | – | –
COc1ccc(Cl)c2c1CCC(CN1CC=C(c3ccc(Cl)cc3)CC1)=C2 | 0 | 0 | 0 | 0 | 1.2 | 1.2 | 0 | 0 | – | – | –
COc1ccc(Cl)c2c1CCC(CN1CCSC1)=C2 | 0 | 0 | 0 | 0 | 1.2 | 1.2 | 0 | 0 | – | – | –
COc1ccc(Cl)c2c1CCC(CN1CCC(C(=O)N(C)C)CC1)=C2 | – | – | – | – | 1.2 | 1.2 | – | – | – | – | –
COc1ccc(Cl)c2c1CCC(CN1CCC(C(=O)N3CCOCC3)CC1)=C2 | – | – | – | – | 1.2 | 1.2 | – | – | – | – | –
CN1CC[C@]23c4c5ccc(O)c4O[C@H]2[C@@H](O)C=C[C@H]3[C@H]1C5.O=S(=O)(O)O [Morphine Sulfate, reference compound] | – | – | – | – | – | > 2.2 | 100 | 100 | – | – | –
COc1ccc(Cl)c2c1CCC(CN(C)C)=C2 [N(CH3)2] | 0 | 0 | 0 | 0 | 0.6 | 1.2 | 0 | 0 | – | – | –
COc1ccc(Cl)c2c1CCC(CN1CCCC1)=C2C [reference compound] | – | – | – | – | – | – | – | – | marginal activity | inactive | marginal activity
